Values of other authors as cited in US20230363334A1, “METHOD FOR INCREASING CONTENT AND GENE EXPRESSION OF AROMATIC SUBSTANCE IN FRUITS AND VEGETABLES BY USING HYDROGEN-RICH WATER” (NANJING AGRICULTURAL UNIVERSITY, priority 2020, published 2023).

Conditions: one atmosphere and 20° C.

[HH] [hydrogen]
Maximum concentration of hydrogen dissolved in water (saturation concentration): 1.6 ppm
Solubility of hydrogen (volumes of hydrogen per volume of water): 1.83%
